Data from patent publication US9186093B2, “Compositions and methods for screening cardioactive drugs” (THE REGENTS OF THE UNIVERSITY OF CALIFORNIA, priority 2008, dated 2015).

Key:
fly heart = assay: Drug application to the fly heart, induction of arrhythmias; type: in vivo, Drosophila; details: HERG and KCNQ channels present in fly heart
Excerpt: According to another embodiment of the invention, methods are provided for testing a compound for cardioactivity comprising: (a) providing a composition comprising an excised, denervated Drosophila heart that retains myogenic activity, and a physiologically acceptable hemolymph fluid in contact with said Drosophila heart; (b) contacting the composition with the compound; and (c) assessing the effect of the compound on the myogenic activity of the semi-intact Drosophila heart. In one such embodiment the method comprises assessing the effect of the compound on myogenic activity of the semi-intact Drosophila heart by producing images of the semi-intact Drosophila heart and analyzing the images. In another such embodiment, the method comprises determining a member of the group consisting of heart period, heart rate, diastolic interval, systolic interval, standard deviation of heart period, standard deviation of heart rate, standard deviation of diastolic interval, standard deviation of systolic interval, percent fractional shortening of heart contraction, arrhythmia index, velocity of heart muscle contraction, and directionality of heart muscle contraction.
These are thought to be due to drug effects on both HERG and KCNQ channels. […] Thus, this system can be used to screen for possible drug side effects.

patients = details: some patients; thought to be due to effects on HERG and KCNQ channels; cited from earlier work

Row | Structure (SMILES) | induction of arrhythmias in the fly (fly heart) | induction of arrhythmias in patients (patients)
1 | CCCCCCC[N+](CC)(CC)CCCCc1ccc(Cl)cc1 [clofilium] | induce arrhythmias in the fly | induce arrhythmias in some patients
2 | CCCCCCCN(CC)CCCC(O)c1ccc(NS(C)(=O)=O)cc1 (stereo not shown) [ibutilide] | induce arrhythmias in the fly | induce arrhythmias in some patients
